Common to all, as to experiment: NCI tumour cell line growth inhibition, 48 h
The subject of test [1] is EKVX.
For test [2], the system named is SNB-75.
In test [3] the test system is UACC-257.
Test [4] concerns HL-60.
Test [5] concerns 786-0.
The test system of test [6] is CAKI-1.
Test [7] has as its system Hs-578T.
In test [8] the test system is OVCAR-4.
For test [9], the system named is MDA-MB-231.
Test [10] concerns HCC 2998.
For test [11], the system named is RPMI-8226.
Test [12] relates to M14.
In test [13] the test system is U-251.
For test [14], the system named is SK-MEL-5.
The subject of test [15] is HT-29.
For test [16], the system named is OVCAR-3.
Test [17] concerns Malme-3M.

Results on twelve molecules are retold here after ChEMBL document CHEMBL1201862, “PubChem BioAssay data set” (2004).

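Values below derive from 48-hour exposures of cells grown in 96-well plates, with endpoints linearly interpolated between the two concentrations bracketing the appropriate inhibition level. GI50 marks 50% less growth.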 The source made the active and inactive calls. No stated cut-off is given here; in the data, active = GI50 up to about 1.1 µM and inactive = higher. Square brackets hold non-standard residues; d marks the D form. Peptide text beside a SMILES is read from it. pGlu = O=C1CC[C@@H](C(=O)O)N1; Thz = O=C(O)[C@@H]1CSCN1 A value given as a limit tells only on which side of the number the result lay.

As for `CSc1nc(O)c(C#N)c(-c2ccc(Cl)cc2)n1`, the GI50 in test [1] is > 100 µM (inactive); in test [2] it was 93.8 µM (inactive); in test [3] it was > 100 µM (inactive); in test [4], 35.5 µM (inactive); in test [5], > 100 µM (inactive); in [6], > 100 µM (inactive). Moreover, the GI50 in test [7] was 64.9 µM (inactive); in test [8], > 100 µM (inactive); in test [9], > 100 µM (inactive); in test [10], > 100 µM (inactive); in test [11], 80.4 µM (inactive); in test [12] it was > 100 µM (inactive). For the same molecule, the GI50 in test [13] is 97.9 µM (inactive); in test [14], > 100 µM (inactive); in test [15], > 100 µM (inactive); in test [16], > 100 µM (inactive).
As to `CC(C)C1(NC(=O)C2CC3c4cccc5[nH]cc(c45)CC3N(C)C2)OC2(O)C3CCCN3C(=O)C(Cc3ccccc3)N2C1=O` (centres undefined), the GI50 is 30.3 µM (inactive) in [1]; 6.71 µM (inactive) in test [2]; 48.1 µM (inactive) in test [3]; 6.62 µM (inactive) in [4]; 36.7 µM (inactive) in test [5]; 26 µM (inactive) in [6]. Also, the GI50 in test [7] was 27.6 µM (inactive); in test [8], 53.5 µM (inactive); in test [9] it was 17.7 µM (inactive); in test [10], 19 µM (inactive); in test [11], 4.44 µM (inactive); in test [12] it was 42.7 µM (inactive). The GI50 in [13] was 34.3 µM (inactive); in test [14], 27.7 µM (inactive); in test [15], 11.6 µM (inactive); in test [16] it was 16.2 µM (inactive).
As for `CN(C)c1nc2oc(-c3ccccc3)c(-c3ccccc3)c2c2nnnn12`, the GI50 is > 100 µM (inactive) in test [1]; 41.1 µM (inactive) in test [2]; > 100 µM (inactive) in test [3]; 19.8 µM (inactive) in test [4]; > 100 µM (inactive) in test [5]; > 100 µM (inactive) in test [6]. Further, the GI50 in test [7], in test [8], in test [9], in [10], in test [11] and in [12] was > 100 µM (inactive) in each case. The GI50 in test [13], in [14] and in test [15] was > 100 µM (inactive) each time.
On to `c1ccc([P+](CCN2Cc3ccccc3C2)(c2ccccc2)c2ccccc2)cc1`, for which the GI50 was 3.84 µM (inactive) in test [1]; 2.12 µM (inactive) in test [2]; 2.35 µM (inactive) in test [3]; 2.77 µM (inactive) in [4]; 8.17 µM (inactive) in test [5]; 38.3 µM (inactive) in test [6]. Further, the GI50 is 12.5 µM (inactive) in [7]; 3.94 µM (inactive) in test [9]; 2.94 µM (inactive) in test [10]; 0.051 µM (active) in test [11]; 5.36 µM (inactive) in test [12]; 2.19 µM (inactive) in test [13]. For the same molecule, the GI50 in test [14] was 2.04 µM (inactive); in test [17] it was 8.59 µM (inactive); in test [15], 3.52 µM (inactive); in test [16], 3.13 µM (inactive).
As to `O=c1c2cc([N+](=O)[O-])ccc2[nH]n1Cc1ccccc1Cl`, the GI50 was 30.2 µM (inactive) in test [1]; > 100 µM (inactive) in [2]; 98.6 µM (inactive) in test [3]; 30.8 µM (inactive) in [4]; 64.9 µM (inactive) in test [5]; > 100 µM (inactive) in [6]. Besides, the GI50 in test [7] is 48.8 µM (inactive); in test [8] it was > 100 µM (inactive); in test [9], 70.5 µM (inactive); in test [10] it was 57.9 µM (inactive); in [11], 30.1 µM (inactive); in test [12] it was 86.1 µM (inactive). Moreover, the GI50 in test [13] is 75.5 µM (inactive); in test [14], 34.7 µM (inactive); in [17], 26.7 µM (inactive); in test [15] it was 54.8 µM (inactive); in test [16], > 100 µM (inactive).
As for `O=C(c1ccccc1)c1ccc(N2C(=O)/C(=C/c3cccc(Oc4ccccc4)c3)N=C2c2ccccc2)c(N2C(=O)/C(=C/c3cccc(Oc4ccccc4)c3)N=C2c2ccccc2)c1`, the GI50 was 44.2 µM (inactive) in test [1]; 23.9 µM (inactive) in [2]; 17.7 µM (inactive) in test [3]; 6.47 µM (inactive) in test [4]; 31.5 µM (inactive) in test [5]; 41.5 µM (inactive) in test [6]. Also, the GI50 was 26.9 µM (inactive) in [7]; 35.3 µM (inactive) in test [8]; 45.8 µM (inactive) in test [9]; 20 µM (inactive) in test [10]; 19.3 µM (inactive) in test [11]; 35.7 µM (inactive) in test [12]. In addition, the GI50 in [13] is 31.3 µM (inactive); in test [14], 13.3 µM (inactive); in test [17], 19.5 µM (inactive); in test [15] it was 30.9 µM (inactive); in test [16] it was 18.9 µM (inactive).
For `Cc1c(/C=N/NC(=S)Nc2ccc([N+](=O)[O-])cc2)c(=O)n(-c2ccccc2)n1C`, the GI50 in [1] was 10.1 µM (inactive); in [2], 13.3 µM (inactive); in [3] it was 30.9 µM (inactive); in test [4], 35.2 µM (inactive); in test [5], 14.3 µM (inactive); in [6], 6.85 µM (inactive). Moreover, the GI50 in [7] is 15.8 µM (inactive); in [8] it was 14.6 µM (inactive); in test [9] it was 20.7 µM (inactive); in test [10] it was 42.3 µM (inactive); in test [11], 48.5 µM (inactive); in test [12], 11.2 µM (inactive). In addition, the GI50 in [13] is 15.6 µM (inactive); in test [14], 33.8 µM (inactive); in [15], 12.9 µM (inactive).
For the molecule `CSc1nc(SC)c2c(C)cn(C3OC(C)C(O)C(O)C3O)c2n1` (centres undefined), the GI50 in test [1] is > 100 µM (inactive); in test [2] it was 52.6 µM (inactive); in test [4] it was 46.2 µM (inactive); in [5], > 100 µM (inactive); in [6], < 0.01 µM (active); in [7], 45.6 µM (inactive). In addition, the GI50 in test [8] was 64.1 µM (inactive); in test [9], 52.7 µM (inactive); in [10] it was 57.5 µM (inactive); in test [11] it was 42.4 µM (inactive); in test [12] it was 87.1 µM (inactive); in test [13] it was 62.7 µM (inactive). Further, the GI50 in [14] is 63.4 µM (inactive); in [17], > 100 µM (inactive); in test [15] it was 53.7 µM (inactive); in [16], 48.8 µM (inactive).
For the molecule `N#Cc1nc(-c2cc([N+](=O)[O-])cc([N+](=O)[O-])c2)oc1N`, the GI50 in test [1], in test [2], in test [3], in [4], in test [5] and in test [6] was > 10 µM (inactive) throughout. Moreover, the GI50 in test [7], in [8], in [9], in test [10], in test [11] and in test [12] was > 10 µM (inactive) in each case. Besides, the GI50 in test [14], in test [17] and in test [15] was > 10 µM (inactive) each time.
As to `COc1ccc2c(c1)/C(=C\c1c(Cl)nc3sc(C)cn13)C(=O)N2`, the GI50 is 7.59 µM (inactive) in test [1]; 4.98 µM (inactive) in test [2]; 4.11 µM (inactive) in test [3]; 1.34 µM (inactive) in [4]; 4.22 µM (inactive) in test [5]; 3.37 µM (inactive) in test [6]. The GI50 in test [7] was 2.74 µM (inactive); in [9], 5.65 µM (inactive); in test [10], 6.43 µM (inactive); in [11], 2.61 µM (inactive); in test [12], 2.69 µM (inactive); in [13], 3.21 µM (inactive). Further, the GI50 in test [14] was 2.16 µM (inactive); in test [17], 2.37 µM (inactive); in test [15] it was 2.41 µM (inactive); in [16], 2.41 µM (inactive).
For the molecule `COc1ccc(-c2oc3cc(OC)c(OC)c(O)c3c(=O)c2OC)cc1`, the GI50 in test [1] is 41.6 µM (inactive); in test [2], 15.4 µM (inactive); in [3] it was > 100 µM (inactive); in test [4], 29.4 µM (inactive); in test [5], 21.9 µM (inactive); in [6], 10.5 µM (inactive). Moreover, the GI50 in [7] is 24 µM (inactive); in test [8], 89.9 µM (inactive); in test [9], 17 µM (inactive); in test [10], > 100 µM (inactive); in test [11], > 100 µM (inactive); in test [12], > 100 µM (inactive). Besides, the GI50 in [13] was 34 µM (inactive); in test [14], > 100 µM (inactive); in test [17] it was > 100 µM (inactive); in test [15], > 100 µM (inactive).
With `O=C1CC[C@@H](C(=O)N2CSC[C@H]2C(=O)O)N1` [PIDOTIMOD] ([pGlu]-[Thz]-OH), the GI50 in test [2], in test [3], in [4], in [5], in test [6] and in test [7] was > 100 µM (inactive) in each case. The GI50 in test [9], in test [10], in test [11], in [12], in test [14] and in test [17] was > 100 µM (inactive) in each case. Further, the GI50 in test [15] and in test [16] was > 100 µM (inactive) in each case.
